The test system of one data set is HepG2 animal cells. As for the experimental part: Simple toxicity tests were performed for the four components of 7,10-EODA, DOD, oleic acid, and DMSO. The target cells were HepG2 animal cells and the results were obtained by MTT assay.
Data set [1] deals with MDRSA 01ST001. Briefly: microbe, parasite or virus in culture. The format is cell-based. As to conditions: Staphylococcus aureus, 12 h. The source says: The results are illustrated in FIG. 11.
The test system of a further data set is S. typhimurium KCTC 2515. The data set is described as follows: Checker board synergy evaluation (MIC, FICI). It counts as cell-based, Salmonella typhimurium. The note with it: Salmonella enterica, 24 h; strain 2515; single agent. As to the method: Interactions of the selected antibiotic or 7,10-EODA of the present invention were evaluated using the checker board method (Nair et al. 2015). […] To obtain various concentrations of 7,10-EODA and antibiotic combination, a 2-fold dilution of the beta-lactam antibiotic was placed on the same plate. About 10^5 CFU/mL of microorganisms to be tested was added to the wells of each plate, and cultured for 24 hours at 37° C. without shaking. At the end of the culture period, cell growth was measured at OD600 using a spectrophotometer. Each 7,10-EODA and antibiotic combination was repeated at least three times. MIC was identified at the lowest concentration of antibiotics with growth inhibition of 90% or higher. FICAB means fractional inhibitory concentration (FIC) of drug A in the presence of drug B, and FICBA means fractional inhibitory concentration (FIC) of drug B in the presence of drug A. The fractional inhibitory concentration index (FICI) represents the sum of the FIC values of the interacting antibiotics. Interactions are based on FICI values, with FICIs less than 0.5 being categorized as synergy, FICIs 0.5 to 4 being indifferent, and FICIs greater than 4 being antagonistic. The degree of synergy was also measured based on the conventional Bliss independence model of synergy (Morones-Ramirez et al. 2013). Specifically, the degree of synergy was calculated by the following equation: S indicates degree of synergy, fAB indicates bacterial growth (optical density) when 7,10-EODA and antibiotics are used in combination, fA0 and f0B represent bacterial growth for antibiotic alone or 7,10-EODA single treatment, respectively. f00 represents bacterial growth in the absence of drug. The degree of synergy is divided into three categories based on the S value, where 0 means neutral, greater than 0 means synergism, and less than 0 means antagonism. S=(fA0/f00)(f0B/f00)−(fAB/f00) […]

In data set [2] the test system is Staphylococcus aureus ATCC 29213. Briefly: Antimicrobial activity on solid medium (clear zone around filter paper). It counts as cell-based. The note with it: FIG. 3. As to the method:
(§1) First, 1.5% of potato agar was added to the YDP medium, sterilized, and then an agar plate hardened by pouring about 20 ml in a plastic Petri dish was used. MRSA 01ST001 was diluted to about 107/ml, and then about 500 μl was dispersed evenly on the agar plate.
(§2) The size of the clear zone around the filter paper shown after the culture at 37° C. for 2 to 3 days after the inoculation was measured to confirm the degree of antimicrobial activity. At this time, vancomycin 100 μg, oxacillin 100 μg, ampicillin 100 μg, streptomycin 100 μg, and penicillin 100 μg were used as control groups.
(§3) The antimicrobial activity can be confirmed with the degree showing the clear zone on the agar plate. It is judged that the larger the clear zone, the higher the antimicrobial activity. The results are illustrated in FIG. 1 and FIG. 2.
(§4) The results are illustrated in FIG. 3. The experiment was carried out in the same manner as in Example 1-2.

Data set [3] has as its system MDRSA 01ST001. Briefly: Checker board synergy evaluation (MIC, FICI). The format is cell-based. As to conditions: Staphylococcus aureus, 24 h; strain 001; single agent. As for the experimental part:
(§5) Interactions of the selected antibiotic or 7,10-EODA of the present invention were evaluated using the checker board method (Nair et al. 2015). […] To obtain various concentrations of 7,10-EODA and antibiotic combination, a 2-fold dilution of the beta-lactam antibiotic was placed on the same plate. About 10^5 CFU/mL of microorganisms to be tested was added to the wells of each plate, and cultured for 24 hours at 37° C. without shaking. At the end of the culture period, cell growth was measured at OD600 using a spectrophotometer. Each 7,10-EODA and antibiotic combination was repeated at least three times. MIC was identified at the lowest concentration of antibiotics with growth inhibition of 90% or higher. FICAB means fractional inhibitory concentration (FIC) of drug A in the presence of drug B, and FICBA means fractional inhibitory concentration (FIC) of drug B in the presence of drug A. The fractional inhibitory concentration index (FICI) represents the sum of the FIC values of the interacting antibiotics. Interactions are based on FICI values, with FICIs less than 0.5 being categorized as synergy, FICIs 0.5 to 4 being indifferent, and FICIs greater than 4 being antagonistic. The degree of synergy was also measured based on the conventional Bliss independence model of synergy (Morones-Ramirez et al. 2013). Specifically, the degree of synergy was calculated by the following equation: S indicates degree of synergy, fAB indicates bacterial growth (optical density) when 7,10-EODA and antibiotics are used in combination, fA0 and f0B represent bacterial growth for antibiotic alone or 7,10-EODA single treatment, respectively. f00 represents bacterial growth in the absence of drug. The degree of synergy is divided into three categories based on the S value, where 0 means neutral, greater than 0 means synergism, and less than 0 means antagonism. S=(fA0/f00)(f0B/f00)−(fAB/f00)
(§6) The antimicrobial activity synergistic effects according to the combination treatment of 7,10-EODA and each antibiotic on methicillin-resistant Staphylococcus aureus (MRSA) strains 085, 093, 120, 136, and 165, MDRSA 01ST001, which is a multidrug-resistant Staphylococcus aureus (MDRSA) strain, E. coli ATCC 8739, and S. typhimurium KCTC 2515 were confirmed. […] Fractional inhibitory concentration indices (FICI) values accordingly were confirmed.

For the next data set, the system named is MRSA strain 120. Briefly: Checker board synergy evaluation (MIC, FICI). The format is cell-based. The note with it: Staphylococcus aureus, 24 h. As to the method:
as §5, §6

Another data set has as its system MRSA strain 165. The data set is described as follows: Checker board synergy evaluation (MIC, FICI). The format is cell-based. As to conditions: Staphylococcus aureus, 24 h. As to the method:
as §5, §6

The subject of a further data set is E. coli ATCC 8739. The data set is described as follows: Checker board synergy evaluation (MIC, FICI). The format is cell-based. As to conditions: Escherichia coli, ATCC8739, 24 h; strain 8739; single agent. As to the method:
as §5, §6

A further data set concerns MRSA strain 085. The data set is described as follows: Checker board synergy evaluation (MIC, FICI). As to conditions: Staphylococcus aureus, 24 h. It counts as cell-based. As for the experimental part:
as §5, §6

The next data set concerns MRSA strain 093. The data set is described as follows: Checker board synergy evaluation (MIC, FICI). As to conditions: Staphylococcus aureus, 24 h. It counts as cell-based. As for the experimental part: as §5, §6
The next data set relates to MRSA strain 136. The data set is described as follows: Checker board synergy evaluation (MIC, FICI). It counts as cell-based. As to conditions: Staphylococcus aureus, 24 h. As to the method: as §5, §6
Data set [4] deals with MRSA 01ST001 (MDRSA 01ST001). Briefly: Antimicrobial activity on solid medium (clear zone around filter paper). It counts as cell-based, Staphylococcus aureus. As to the method: as §1, §2, §3, §4
The test system of data set [5] is MDRSA 01ST001. Briefly: Agar disk diffusion analysis, zone of inhibition (ZOI). The format is cell-based, Staphylococcus aureus. As to the method:
For synergy effect screening, a 0.1 mL aliquot of MRSA or MSSA strain (5×10^5 CFU/mL) cultured in a log-phase on TSA plates was inoculated. […] A disk including DMSO alone or 7,10-EODA alone (¼×MIC) was used as a control group. The plates were cultured under conditions of […] and 24 hours, and a synergistic effect was observed when the disk periphery including both antibiotic and 7,10-EODA was at least 5 mm in zone of inhibition (ZOI).
Specifically, in order to compare the antimicrobial activity of the 7,10-EODA or the antibiotic of the present invention against the MDRSA 01ST001 strain, the MDRSA 01ST001 strain was treated with the 7,10-EODA (E 100 μg) of the present invention, streptomycin (S, 100 μg), ampicillin (A, 100 μg), oxacillin (O, 100 μg), vancomycin (V, 100 μg), or penicillin (P, 100 μg), according to the method described in Experimental Example 5.
Specifically, the minimal inhibitory concentration (MIC) was measured according to the method of Experimental Example 4 above, and the degree of inhibition (Agar diffusion analysis) (zone of inhibition; ZOI) was measured according to the method of Experimental Example 5 above.
(A growth-free zone around the sample is the usual read-out of agar diffusion tests.)

The test system of data set [6] is MDRSA 01ST001. As to conditions: 125 μg/ml.
Data set [7] relates to MDRSA 01ST001. The data set is described as follows: microbe, parasite or virus in culture. The note with it: Staphylococcus aureus.

Read-outs that look alike come from different tables or passages of the source.

`CCCCCCCCc1ccc(CCCCCC(=O)O)o1` [7,10-EODA, 7,10-epoxyoctadeca-7,9-dienoic acid]: the “toxicity as a whole” value with HepG2 animal cells is recorded as “not highly toxic”. In addition, the MIC90 in the data set on MDRSA 01ST001 [1] (read-out: MIC90 concentration) was at most 15.6 µg/mL. Besides, the inhibition at 15.6 µg/mL with MDRSA 01ST001 [1] (read-out: reduction of residual viable microorganisms compared to the control) was above 90%; in the data set with MDRSA 01ST001 [7] (4 h, read-out: decrease of residual viable microorganism concentration compared to the control) it was at least 50%. For the same molecule, the MIC in the data set with S. typhimurium KCTC 2515 was 500 µg/mL; in the data set on MDRSA 01ST001 [3], 125 µg/mL; in the data set on MRSA strain 120 it was 125 µg/mL; in the data set on MRSA strain 165, 125 µg/mL; in the data set with E. coli ATCC 8739 it was 500 µg/mL; with MRSA strain 085, 125 µg/mL. The minimal inhibitory concentration (MIC) in the data set with MRSA strain 093 and in the data set on MRSA strain 136 was 125 µg/mL in each case. Also, the “antimicrobial activity on solid medium” value in data set [2] was “antimicrobial activity was exhibited”; in [4] (MDRSA 01ST001, FIG. 3), “higher antimicrobial activity than Staphylococcus aureus ATCC 29213”. Also, the “clear zone on agar plate” value in [4] (100 μg per filter paper, 37° C., 2 to 3 days, FIG. 1) is on record as “clear zone similar in size to vancoclin”. In data set [4] (50, 100, 200 and 400 μg, FIG. 2), the “clear zone size with treatment concentration” value is “improved in a concentration-dependent manner”. Besides, the “antimicrobial activity, disk diffusion” value in the data set on MDRSA 01ST001 [5] (100 μg each, FIG. 4) was “showed the antimicrobial activity”. In addition, the “antimicrobial activity according to concentration” value with MDRSA 01ST001 [5] (50, 100, 200 and 400 μg, FIG. 5) was “high in a concentration-dependent manner”. Besides, the “time until MDRSA 01ST001 was completely killed” value in the data set with MDRSA 01ST001 [6] is at most 10 min. In the data set on MDRSA 01ST001 [7] (10 min, read-out: residual viable microorganism concentration compared to the control), the viability at 62.5 µg/mL is below 10%.

One may read the MIC as the smallest concentration in the dilution series that meets the test's criterion for growth inhibition.

The values are drawn from patent US10695314B2, “Antimicrobial composition containing 7,10-epoxyoctadeca-7,9-dienoic acid as active ingredient” (priority 2016, dated 2020).
